For experiment [1], the target named is T1, GST tagged PIP4KtypeIIB (Homo sapiens, UniProt P78356).
T1 construct: made in house; host or cells: E. coli
T1 sequence (P78356 1-416): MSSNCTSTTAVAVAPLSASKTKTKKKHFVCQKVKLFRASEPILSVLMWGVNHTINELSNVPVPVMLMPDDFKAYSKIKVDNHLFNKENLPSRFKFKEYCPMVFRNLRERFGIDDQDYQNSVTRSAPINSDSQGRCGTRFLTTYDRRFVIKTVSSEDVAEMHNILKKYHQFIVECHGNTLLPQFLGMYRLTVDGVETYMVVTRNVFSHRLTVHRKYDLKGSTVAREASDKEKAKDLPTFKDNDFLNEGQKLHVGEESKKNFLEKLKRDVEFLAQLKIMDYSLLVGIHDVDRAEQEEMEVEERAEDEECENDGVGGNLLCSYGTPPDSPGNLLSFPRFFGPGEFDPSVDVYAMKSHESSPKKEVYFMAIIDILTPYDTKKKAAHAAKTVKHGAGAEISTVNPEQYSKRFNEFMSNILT
Nature of the experiment: Trans-FI P kinase assay PIP4K2B (PIP4KtypeIIB inhibition assay). The format is biochemical. Particulars: Table 4; compounds listed under IC50 range headings; 100 uM GTP, 5 nM PIP4KIIB; read-out: Trans-FI P kinase assays: PIP4K2B IC50. Summed up: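 Purified GST-PIP4KIIB (5 nM final), 1 h preincubation with compound at 27 C, then 2 h reaction with 100 uM GTP and 80 uM PI5P plus DOPE carrier lipid in pH 7.3 HEPES/MgCl2/Triton buffer with 5% DMSO. GDP read by Transcreener FI fluorescence against a calibration curve; IC50 from % no-inhibitor activity vs log concentration.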

For experiment [2], the target named is T2, GST tagged PIP4KtypeIIA (Homo sapiens, UniProt P48426).
T2 construct: made in house; host or cells: E. coli
T2 sequence (P48426 1-406): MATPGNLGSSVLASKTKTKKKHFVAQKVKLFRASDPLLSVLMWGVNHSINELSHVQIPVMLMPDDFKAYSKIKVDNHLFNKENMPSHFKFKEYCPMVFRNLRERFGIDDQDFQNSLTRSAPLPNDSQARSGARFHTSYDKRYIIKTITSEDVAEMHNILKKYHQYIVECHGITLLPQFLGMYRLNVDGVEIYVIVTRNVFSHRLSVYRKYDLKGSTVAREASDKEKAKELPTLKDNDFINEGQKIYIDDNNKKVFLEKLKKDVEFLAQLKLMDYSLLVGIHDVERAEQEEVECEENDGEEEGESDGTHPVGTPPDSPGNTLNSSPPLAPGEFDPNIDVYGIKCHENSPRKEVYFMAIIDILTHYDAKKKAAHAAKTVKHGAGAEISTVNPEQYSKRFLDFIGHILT
Kind of experiment: ADP-glo kinase assay PIP4K 2A (PIP4KtypeIIA inhibition assay). In kind it is biochemical. Particulars: Table 3; compounds listed under IC50 range headings; 10 uM ATP, 0.5 nM PIP4KIIA. The text has this:
GST tagged PIP4KtypeIIA and B enzymes were overexpressed in E. Coli and purified to >80% homogeneity. Phosphatidyl inositol-5-phosphate (PI5P, Cat. #850152, Avanti Polar Lipids Inc.) was used as the lipid substrate and phosphatidyl ethanolamine (DOPE 18:1, Cat. #850725, Avanti Polar Lipids Inc.) was used as the carrier lipid for assays. Ultrapure ATP and GTP was purchased from Bellbrooke Labs. ADP Glo reagents were obtained from Promega. Transcreener FI reagent was obtained from Bellbrooke labs.
1. HEPES buffer mix: 200 mM HEPES pH 7.4, 50 mM MgCl2, 0.05% v/v triton×100
2. HNE buffer: 20 mM HEPES, pH 7.4, 100 mM NaCl, 0.5 mM EGTA
3. H:E buffer: 30 mM HEPES, pH 7.4, 1 mM EGTA
Enzyme preparation: GST-tagged PIP4KtypeIIA (5 uL, 1.43 mg/mL) was diluted (1:10) to 50 uL using HNE buffer. From the 1:10 diluted stock, a 6.4 uL aliquot was diluted further to 5 mL using HNE buffer to yield 5× enzyme stock (2.5 nM).
Lipid Preparation: In a 10 mL pyrex glass vial, lug of PI5P and lug of DOPE were suspended in 2.5 mL of HEPES buffer mix and 2.5 mL of H:E buffer. The contents were mixed and sonicated for 3 min to yield a translucent lipid stock.
Compound Preparation: Compounds were stored as 5 mM stocks in neat DMSO as room temperature in glass vials. 5 mM stocks were diluted to 2 mM and then serially diluted (3×) in neat DMSO in 96 well polypropylene plates. From the serially diluted stocks, 3 uL was delivered into 250 uL of 25% DMSO (in water) to generate 5× compound stocks. Typically, the highest compound conc. was 24 uM.
The assay volume was kept at 25 uL. To each well of the reaction plate, 10 uL of lipid stock (1:1 ratio PI5P:DOPE) was delivered. This was followed by the addition of 5 uL of compound in 25% DMSO. Then, to each well, 5 uL of 2.5 nM (5×) typeIIA enzyme was delivered. The contents were mixed well and incubated for 1 h at 27 C. After 1 h, reaction was initiated by adding 5 uL of 50 uM ATP and the contents were mixed well with a multi-channel pipetteman. The final concentration of the reagents are as follows: 50 mM HEPES, pH 7.3, 10 mM MgCl2, 20 mM NaCl, 0.01% v/v triton-X100, 5% DMSO, 10 uM ATP, 80 uM (2 ug) PI5P, 2 ug DOPE, and 0.5 nM PIP4KIIA. Typically, the highest conc. of compounds was 4.8 uM and the lowest conc. was 0.
After 1 hr, the reaction was quenched by adding 25 uL of ADP Glo reagent. The contents were incubated for 1 hr. Afterwards, 50 uL of kinase detection reagent was delivered. The contents were incubated for another hour. The luminescence was read using Molecular Devices Paradigm plate reader. […] The blanks were averaged and subtracted from all other wells. Using a calibration curve, RLU was converted to uM ADP (product). IC50 was calculated by plotting the residual activity (expressed as % No inhibitor control) vs. log [Inh. conc.]
A general note: ADP-Glo first removes unused ATP, then detects ADP through luciferase.

Molecules are shown by their SMILES. Bounds are passed on as bounds.

With `CN(C)C(=O)c1ccc(-c2cc(-c3cc(Nc4cc(N)ccn4)ncn3)cnc2N)nc1` [Example 222, 2′-amino-5′-(6-((4-aminopyridin-2-yl)amino)pyrimidin-4-yl)-N,N-dimethyl-[2,3′-bipyridine]-5-carboxamide], the IC50 in experiment [1] was 2500 to 5000 nM; in experiment [2] it was above 5000 nM.

As for `Cc1cccc2c1CC(=O)N2c1ccc(-c2cncc(-c3ccnc4c3cc3n4CCN(C)C3=O)c2)cc1` [Example 208, 7-methyl-4-(5-(4-(4-methyl-2-oxoindolin-1-yl)phenyl)pyridin-3-yl)-8,9-dihydropyrido[3′,2′:4,5]pyrrolo[1,2-a]pyrazin-6(7H)-one], the IC50 in experiment [1] and in experiment [2] was above 5000 nM each time.

For the molecule `O=C(NCCc1cccnc1)c1cc2c(-c3cncc(-c4ccc(N5CCCC5=O)cc4)c3)ccnc2[nH]1` [Example 237, 4-(5-(4-(2-oxopyrrolidin-1-yl)phenyl)pyridin-3-yl)-N-(2-(pyridin-3-yl)ethyl)-1H-pyrrolo[2,3-b]pyridine-2-carboxamide], the IC50 in experiment [1] was 10 to 100 nM; in experiment [2], 100 to 1000 nM.

Turning to `O=C1CCCN1c1ccc(-c2cncc(-c3ncnc4nc(C5CCC5)[nH]c34)c2)cc1` [Example 289, 1-(4-(5-(8-cyclobutyl-7H-purin-6-yl)pyridin-3-yl)phenyl)pyrrolidin-2-one], the IC50 in experiment [1] lay within 1000 to 2500 nM; in experiment [2], 2500 to 5000 nM.

For the molecule `C[C@H](O)c1cnc2c(c1)c(-c1cncc(-c3ccc(N4CCCC4=O)cc3)c1)cn2C` [Example 294, (S)-1-(4-(5-(5-(1-hydroxyethyl)-1-methyl-1H-pyrrolo[2,3-b]pyridin-3-yl)pyridin-3-yl)phenyl)pyrrolidin-2-one], the IC50 in experiment [1] and in experiment [2] was 100 to 1000 nM in each case.

Turning to `O=C(NCCc1ccccn1)c1cc2c(-c3cncc(-c4ccc(N5CCCC5=O)cc4)c3)ccnc2[nH]1` [Example 246, 4-(5-(4-(2-oxopyrrolidin-1-yl)phenyl)pyridin-3-yl)-N-(2-(pyridin-2-yl)ethyl)-1H-pyrrolo[2,3-b]pyridine-2-carboxamide], the IC50 in experiment [1] lay in the range of 10 to 100 nM; in experiment [2], 100 to 1000 nM.

As to `O=C(NCCc1ncc[nH]1)c1cc2c(-c3cncc(-c4ccc(N5CCCC5)cc4)c3)ccnc2[nH]1` [Example 244, N-(2-(1H-imidazol-2-yl)ethyl)-4-(5-(4-(pyrrolidin-1-yl)phenyl)pyridin-3-yl)-1H-pyrrolo[2,3-b]pyridine-2-carboxamide], the 50% inhibitory concentration (IC50) lay within 10 to 100 nM in experiment [1] and 100 to 1000 nM in experiment [2].

For `CN(C)C(=O)c1ccc(-c2cc(-c3ccnc4[nH]c(C(=O)N5CCS(=O)(=O)CC5)cc34)cnc2N)nc1` [Example 142, 2′-amino-5′-(2-(1,1-dioxidothiomorpholine-4-carbonyl)-1H-pyrrolo[2,3-b]pyridin-4-yl)-N,N-dimethyl-[2,3′-bipyridine]-5-carboxamide], the IC50 in experiment [1] and in experiment [2] was 100 to 1000 nM in each case.

On to `O=C(NCCc1nccs1)c1cc2c(-c3cncc(-c4ccc(N5CCCC5=O)cc4)c3)ccnc2[nH]1` [Example 256, 4-(5-(4-(2-oxopyrrolidin-1-yl)phenyl)pyridin-3-yl)-N-(2-(thiazol-2-yl)ethyl)-1H-pyrrolo[2,3-b]pyridine-2-carboxamide], for which the IC50 in experiment [1] was in the range of 10 to 100 nM; in experiment [2], 100 to 1000 nM.

Regarding `O=C(NCCc1ccccc1)c1cc2c(-c3cncc(-c4ccc(N5CCCC5=O)cc4)c3)ccnc2[nH]1` [Example 236, 4-(5-(4-(2-oxopyrrolidin-1-yl)phenyl)pyridin-3-yl)-N-phenethyl-1H-pyrrolo[2,3-b]pyridine-2-carboxamide], the results for the IC50 in experiment [1] and in experiment [2] were 10 to 100 nM and 100 to 1000 nM, respectively.

For the molecule `COCc1cc(-c2cncc(-c3ccc(N4CCCC4=O)cc3)c2)n2nc(C)cc2n1` [Example 285, 1-(4-(5-(5-(methoxymethyl)-2-methylpyrazolo[1,5-a]pyrimidin-7-yl)pyridin-3-yl)phenyl)pyrrolidin-2-one], the IC50 in experiment [1] and in experiment [2] was 2500 to 5000 nM in each case.

As to `CC(O)c1cnc2[nH]c(C3CC3)c(-c3cncc(-c4ccc(N5CCCC5=O)cc4)c3)c2c1` (stereo not shown) [Example 291, 1-(4-(5-(2-cyclopropyl-5-(1-hydroxyethyl)-1H-pyrrolo[2,3-b]pyridin-3-yl)pyridin-3-yl)phenyl)pyrrolidin-2-one], the IC50 in experiment [1] and in experiment [2] was 10 to 100 nM throughout.

For `Cc1c(-c2ccc(N3CCCC3=O)cc2)cncc1-c1cn(C)c2ncc([C@H](C)O)cc12` (single isomer, unassigned) [196(S)], the IC50 in experiment [1] and in experiment [2] was 100 to 1000 nM in each case.

On to `O=C(NCCc1cnccn1)c1cc2c(-c3cncc(-c4ccc(N5CCCC5=O)cc4)c3)ccnc2[nH]1` [Example 255, 4-(5-(4-(2-oxopyrrolidin-1-yl)phenyl)pyridin-3-yl)-N-(2-(pyrazin-2-yl)ethyl)-1H-pyrrolo[2,3-b]pyridine-2-carboxamide], for which the IC50 in experiment [1] lay in the range of 10 to 100 nM; in experiment [2], 100 to 1000 nM.

In the case of `CN1CCn2c(cc3c(-c4cncc(-c5ccc(N6CC7(CC7)CC6=O)cc5)c4)ccnc32)C1=O` [Example 201, 7-methyl-4-(5-(4-(6-oxo-5-azaspiro[2.4]heptan-5-yl)phenyl)pyridin-3-yl)-8,9-dihydropyrido[3′,2′:4,5]pyrrolo[1,2-a]pyrazin-6(7H)-one], the IC50 in experiment [1] fell in the range of 10 to 100 nM; in experiment [2], 100 to 1000 nM.

Regarding `Cc1nn2c(=O)c(CCO)c(C)[nH]c2c1-c1cncc(-c2ccc(N3CCCC3=O)cc2)c1` [Example 284, 6-(2-hydroxyethyl)-2,5-dimethyl-3-(5-(4-(2-oxopyrrolidin-1-yl)phenyl)pyridin-3-yl)pyrazolo[1,5-a]pyrimidin-7(4H)-one], the IC50 in experiment [1] and in experiment [2] was 100 to 1000 nM in each case.

For `CN(C)C(=O)c1ccc(-c2cc(-c3ccnc4[nH]c(C(=O)NCC(=O)O)cc34)cnc2N)nc1` [Example 145, (4-(2′-amino-5-(dimethylcarbamoyl)-[2,3′-bipyridin]-5′-yl)-1H-pyrrolo[2,3-b]pyridine-2-carbonyl)glycine], the IC50 in experiment [1] and in experiment [2] was 100 to 1000 nM throughout.

Usually IC50 stands for the midpoint of a concentration-inhibition curve.

Source of the values: patent US11919902B2, “Aryl-bipyridine amine derivatives as phosphatidylinositol phosphate kinase inhibitors” (HiberCell, Inc., priority 2017, dated 2024).
